Test results from US20250034216A1, “STEREOSELECTIVE COVALENT LIGANDS FOR ONCOGENIC AND IMMUNOLOGICAL PROTEINS” (The Scripps Research Institute, priority 2021, published 2025).

What was measured:
Assay in all cases: IA-DTB cysteine engagement
Type in all cases: binding
Settings in all cases: 22Rv1 cells, 20 μM probe, 1 h, relative to DMSO
[1] = target: T1, BCKDK_C118 (Homo sapiens, UniProt O14874)
T1 construct: endogenous in cells; host or cells: 22Rv1
How it was run: (§1)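 In-situ probe treatment of cells; lysate 2 mg/mL, IA-DTB 1 h RT; MeOH/CHCl3 precipitation, DTT/iodoacetamide, trypsin; streptavidin enrichment; TMT labeling, high-pH fractionation. Ratio = TMT reporter intensity / mean DMSO channels, median-normalized.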

[2] = target: T2, EPB42_C586 (Homo sapiens, UniProt P16452)
T2 construct: endogenous in cells; host or cells: 22Rv1
T2 sequence (P16452 1-691): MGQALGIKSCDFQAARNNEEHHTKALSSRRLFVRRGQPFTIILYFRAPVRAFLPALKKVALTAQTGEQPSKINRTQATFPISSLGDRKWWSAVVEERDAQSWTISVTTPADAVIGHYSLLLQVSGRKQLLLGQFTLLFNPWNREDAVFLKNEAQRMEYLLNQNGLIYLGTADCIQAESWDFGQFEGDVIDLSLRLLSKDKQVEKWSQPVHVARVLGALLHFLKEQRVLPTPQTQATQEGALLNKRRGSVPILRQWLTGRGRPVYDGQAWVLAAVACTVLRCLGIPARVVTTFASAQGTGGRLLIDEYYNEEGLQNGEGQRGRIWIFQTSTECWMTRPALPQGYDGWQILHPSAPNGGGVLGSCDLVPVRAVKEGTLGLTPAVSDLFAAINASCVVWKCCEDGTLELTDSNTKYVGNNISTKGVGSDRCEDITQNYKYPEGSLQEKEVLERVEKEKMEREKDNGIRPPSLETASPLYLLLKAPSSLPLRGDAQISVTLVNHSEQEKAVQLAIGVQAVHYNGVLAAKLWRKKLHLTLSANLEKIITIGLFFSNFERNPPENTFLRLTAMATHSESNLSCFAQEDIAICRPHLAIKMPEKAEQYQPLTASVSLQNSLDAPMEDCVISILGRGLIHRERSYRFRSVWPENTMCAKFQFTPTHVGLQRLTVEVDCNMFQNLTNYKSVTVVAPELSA
How it was run: as §1

[3] = target: T3, FXYD3_C63 (Homo sapiens, UniProt Q14802)
T3 construct: endogenous in cells; host or cells: 22Rv1
T3 sequence (Q14802 21-87): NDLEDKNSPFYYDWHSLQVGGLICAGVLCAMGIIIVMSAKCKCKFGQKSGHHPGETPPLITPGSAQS
How it was run: as §1

[4] = target: T4, TBC1D13_C282 (Homo sapiens, UniProt Q9NVG8)
T4 construct: endogenous in cells; host or cells: 22Rv1
T4 sequence (Q9NVG8 1-400): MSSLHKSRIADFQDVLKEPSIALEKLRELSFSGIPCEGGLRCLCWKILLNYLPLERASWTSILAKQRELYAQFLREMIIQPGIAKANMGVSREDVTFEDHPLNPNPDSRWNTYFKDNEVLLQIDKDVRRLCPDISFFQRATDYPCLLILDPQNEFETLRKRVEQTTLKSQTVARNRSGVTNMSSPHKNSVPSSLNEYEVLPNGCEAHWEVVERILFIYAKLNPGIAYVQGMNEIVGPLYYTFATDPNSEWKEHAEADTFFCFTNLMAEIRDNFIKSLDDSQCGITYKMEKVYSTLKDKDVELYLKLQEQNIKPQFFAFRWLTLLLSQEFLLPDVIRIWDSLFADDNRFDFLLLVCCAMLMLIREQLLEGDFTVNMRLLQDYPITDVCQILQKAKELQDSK
How it was run: as §1

SMILES: C=CC(=O)N1C[C@H](c2ccc(Br)cc2)[C@H]1C(=O)Nc1cccc2cccnc12 [MY-3A, (2S,3S)-1-acryloyl-3-(4-bromophenyl)-N-(quinolin-8-yl)azetidine-2-carboxamide]
- % engagement BCKDK_C118 [1]: 43%
- % engagement EPB42_C586 [2]: 66.5%
- % engagement FXYD3_C63 [3]: 43.5%
- % engagement TBC1D13_C282 [4]: −16%

SMILES: C=CC(=O)N1C[C@H](c2ccc(Br)cc2)[C@@H]1C(=O)Nc1cccc2cccnc12 [MY-1B, (2R,3S)-1-acryloyl-3-(4-bromophenyl)-N-(quinolin-8-yl)azetidine-2-carboxamide]
- % engagement BCKDK_C118 [1]: 57.75%
- % engagement EPB42_C586 [2]: 33.5%
- % engagement FXYD3_C63 [3]: 52.5%
- % engagement TBC1D13_C282 [4]: 1%

SMILES: C=CC(=O)N1C[C@H](c2ccc(Br)cc2)[C@H]1C(=O)Nc1cccc2cccnc12 [MY-3B, (2S,3S)-1-acryloyl-3-(4-bromophenyl)-N-(quinolin-8-yl)azetidine-2-carboxamide]
- % engagement BCKDK_C118 [1]: 78.5%
- % engagement EPB42_C586 [2]: 43.5%
- % engagement FXYD3_C63 [3]: 71%
- % engagement TBC1D13_C282 [4]: 51.5%

SMILES: C=CC(=O)N1C[C@@H](c2ccc(Br)cc2)[C@H]1C(=O)Nc1cccc2cccnc12 [MY-1A, (2S,3R)-1-acryloyl-3-(4-bromophenyl)-N-(quinolin-8-yl)azetidine-2-carboxamide]
- % engagement BCKDK_C118 [1]: 55.5%
- % engagement EPB42_C586 [2]: 55%
- % engagement FXYD3_C63 [3]: 48.5%
- % engagement TBC1D13_C282 [4]: 75.75%
